From the supplement of paper PMC10307832

Key:
Test in all cases: relative viability (nuclei count vs DMSO), 5 days (fraction); higher = more cells survive
Shikonin + Pemetrexed = compound: CC(C)=CC[C@@H](O)C1=CC(=O)c2c(O)ccc(O)c2C1=O [Shikonin] + Nc1nc2[nH]cc(CCc3ccc(C(=O)N[C@@H](CCC(=O)O)C(=O)O)cc3)c2c(=O)[nH]1 [Pemetrexed] (partner 0.2 µM)
How it was run: (§1)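 Relative viability is defined as nuclei in treated wells over nuclei in vehicle wells. Duplicate plates were run and medians reported. Lung cancer cell lines in 1536-well plates were dosed by pin tool one day after seeding, with one drug or with a fixed anchor-drug dose plus five library-drug doses (not always all listed) in √10 steps, and nuclei were counted after 5 days.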

[1] = compound: CC(C)N(CCCNC(=O)Nc1ccc(C(C)(C)C)cc1)C[C@H]1O[C@@H](n2ccc3c(N)ncnc32)[C@H](O)[C@@H]1O + O=C(CCCCCCC(=O)Nc1ccccc1)NO [Vorinostat] (partner 1 µM)
How it was run: as §1

[2] = compound: CC(C)N(CCCNC(=O)Nc1ccc(C(C)(C)C)cc1)C[C@H]1O[C@@H](n2ccc3c(N)ncnc32)[C@H](O)[C@@H]1O + CS(=O)(=O)N1CCN(Cc2cc3nc(-c4cccc5[nH]ncc45)nc(N4CCOCC4)c3s2)CC1 [Pictilisib] (partner 1 µM)
How it was run: as §1

Shikonin + Olaparib = compound: CC(C)=CC[C@@H](O)C1=CC(=O)c2c(O)ccc(O)c2C1=O [Shikonin] + O=C(c1cc(Cc2n[nH]c(=O)c3ccccc23)ccc1F)N1CCN(C(=O)C2CC2)CC1 [Olaparib] (partner 8 µM)
How it was run: as §1

NCI-H2405
relative viability (Shikonin + Pemetrexed; first compound 0.01 µM): 1.05
relative viability (Shikonin + Pemetrexed; first compound 0.1 µM): 1.31
relative viability (Shikonin + Pemetrexed; first compound 0.3162 µM): 1.06
relative viability (Shikonin + Pemetrexed; first compound 1 µM): 1.13
relative viability ([1]; first compound 0.08 µM): 1.06
relative viability ([1]; first compound 0.253 µM): 0.969
relative viability ([1]; first compound 0.8 µM): 0.928
relative viability ([1]; first compound 2.53 µM): 1.07
relative viability ([1]; first compound 8 µM): 0.92
relative viability ([2]; first compound 0.08 µM): 0.506
relative viability ([2]; first compound 0.8 µM): 0.358
relative viability ([2]; first compound 2.53 µM): 0.46
relative viability ([2]; first compound 8 µM): 0.429
relative viability (Shikonin + Olaparib; first compound 0.01 µM): 0.918
relative viability (Shikonin + Olaparib; first compound 0.1 µM): 0.952
relative viability (Shikonin + Olaparib; first compound 0.3162 µM): 0.892
relative viability (Shikonin + Olaparib; first compound 1 µM): 0.868

NCI-H3122
relative viability (Shikonin + Pemetrexed; first compound 0.01 µM): 0.215
relative viability (Shikonin + Pemetrexed; first compound 0.1 µM): 0.219
relative viability (Shikonin + Pemetrexed; first compound 0.3162 µM): 0.209
relative viability (Shikonin + Pemetrexed; first compound 1 µM): 0.209
relative viability ([1]; first compound 0.08 µM): 0.957
relative viability ([1]; first compound 0.253 µM): 1.2
relative viability ([1]; first compound 0.8 µM): 0.894
relative viability ([1]; first compound 2.53 µM): 0.991
relative viability ([1]; first compound 8 µM): 0.921
relative viability ([2]; first compound 0.08 µM): 0.653
relative viability ([2]; first compound 0.253 µM): 0.576
relative viability ([2]; first compound 0.8 µM): 0.634
relative viability ([2]; first compound 2.53 µM): 0.493
relative viability ([2]; first compound 8 µM): 0.553
relative viability (Shikonin + Olaparib; first compound 0.01 µM): 0.655
relative viability (Shikonin + Olaparib; first compound 0.1 µM): 0.631
relative viability (Shikonin + Olaparib; first compound 0.3162 µM): 0.621
relative viability (Shikonin + Olaparib; first compound 1 µM): 0.679

PC-3 [JPC-3]
relative viability (Shikonin + Pemetrexed; first compound 0.01 µM): 1.21
relative viability (Shikonin + Pemetrexed; first compound 0.1 µM): 1.44
relative viability (Shikonin + Pemetrexed; first compound 0.3162 µM): 1.05
relative viability (Shikonin + Pemetrexed; first compound 1 µM): 1.63
relative viability ([1]; first compound 0.08 µM): 0.813
relative viability ([1]; first compound 0.253 µM): 0.761
relative viability ([1]; first compound 2.53 µM): 0.741
relative viability ([1]; first compound 8 µM): 0.695
relative viability ([2]; first compound 0.08 µM): 0.757
relative viability ([2]; first compound 0.253 µM): 0.677
relative viability ([2]; first compound 0.8 µM): 0.658
relative viability ([2]; first compound 2.53 µM): 0.656
relative viability ([2]; first compound 8 µM): 0.727
relative viability (Shikonin + Olaparib; first compound 0.01 µM): 1.08
relative viability (Shikonin + Olaparib; first compound 0.1 µM): 1.16
relative viability (Shikonin + Olaparib; first compound 0.3162 µM): 1.33
relative viability (Shikonin + Olaparib; first compound 1 µM): 1.27

PC-14
relative viability (Shikonin + Pemetrexed; first compound 0.01 µM): 0.15
relative viability (Shikonin + Pemetrexed; first compound 0.1 µM): 0.137
relative viability (Shikonin + Pemetrexed; first compound 0.3162 µM): 0.125
relative viability (Shikonin + Pemetrexed; first compound 1 µM): 0.135
relative viability ([1]; first compound 0.08 µM): 0.71
relative viability ([1]; first compound 0.253 µM): 0.722
relative viability ([1]; first compound 0.8 µM): 0.624
relative viability ([1]; first compound 2.53 µM): 0.702
relative viability ([1]; first compound 8 µM): 0.561
relative viability ([2]; first compound 0.08 µM): 0.657
relative viability ([2]; first compound 0.253 µM): 0.528
relative viability ([2]; first compound 0.8 µM): 0.795
relative viability ([2]; first compound 2.53 µM): 0.882
relative viability ([2]; first compound 8 µM): 0.57
relative viability (Shikonin + Olaparib; first compound 0.01 µM): 0.282
relative viability (Shikonin + Olaparib; first compound 0.1 µM): 0.235
relative viability (Shikonin + Olaparib; first compound 0.3162 µM): 0.191
relative viability (Shikonin + Olaparib; first compound 1 µM): 0.121

RERF-LC-KJ
relative viability (Shikonin + Pemetrexed; first compound 0.01 µM): 0.47
relative viability (Shikonin + Pemetrexed; first compound 0.1 µM): 0.512
relative viability (Shikonin + Pemetrexed; first compound 0.3162 µM): 0.465
relative viability (Shikonin + Pemetrexed; first compound 1 µM): 0.549
relative viability ([1]; first compound 0.08 µM): 0.638
relative viability ([1]; first compound 0.253 µM): 0.741
relative viability ([1]; first compound 0.8 µM): 0.551
relative viability ([1]; first compound 2.53 µM): 0.742
relative viability ([1]; first compound 8 µM): 0.707
relative viability ([2]; first compound 0.08 µM): 0.597
relative viability ([2]; first compound 0.253 µM): 0.511
relative viability ([2]; first compound 0.8 µM): 0.525
relative viability ([2]; first compound 2.53 µM): 0.493
relative viability ([2]; first compound 8 µM): 0.501
relative viability (Shikonin + Olaparib; first compound 0.01 µM): 1.05
relative viability (Shikonin + Olaparib; first compound 0.1 µM): 1.08
relative viability (Shikonin + Olaparib; first compound 0.3162 µM): 0.842
relative viability (Shikonin + Olaparib; first compound 1 µM): 0.62

SK-LU-1
relative viability (Shikonin + Pemetrexed; first compound 0.01 µM): 1.14
relative viability (Shikonin + Pemetrexed; first compound 0.1 µM): 1.17
relative viability (Shikonin + Pemetrexed; first compound 0.3162 µM): 1.01
relative viability (Shikonin + Pemetrexed; first compound 1 µM): 0.994
relative viability ([1]; first compound 0.08 µM): 0.742
relative viability ([1]; first compound 0.253 µM): 0.775
relative viability ([1]; first compound 0.8 µM): 0.87
relative viability ([1]; first compound 2.53 µM): 0.87
relative viability ([1]; first compound 8 µM): 0.736
relative viability ([2]; first compound 0.08 µM): 0.593
relative viability ([2]; first compound 0.253 µM): 0.506
relative viability ([2]; first compound 0.8 µM): 0.621
relative viability ([2]; first compound 2.53 µM): 0.662
relative viability ([2]; first compound 8 µM): 0.538
relative viability (Shikonin + Olaparib; first compound 0.01 µM): 0.45
relative viability (Shikonin + Olaparib; first compound 0.1 µM): 0.413
relative viability (Shikonin + Olaparib; first compound 0.3162 µM): 0.441
relative viability (Shikonin + Olaparib; first compound 1 µM): 0.468

SK-MES-1
relative viability (Shikonin + Pemetrexed; first compound 0.01 µM): 0.923
relative viability (Shikonin + Pemetrexed; first compound 0.1 µM): 1.17
relative viability (Shikonin + Pemetrexed; first compound 0.3162 µM): 0.984
relative viability (Shikonin + Pemetrexed; first compound 1 µM): 1.01
relative viability ([1]; first compound 0.08 µM): 1.04
relative viability ([1]; first compound 0.253 µM): 1.13
relative viability ([1]; first compound 0.8 µM): 0.867
relative viability ([1]; first compound 2.53 µM): 1.1
relative viability ([1]; first compound 8 µM): 1.06
relative viability ([2]; first compound 0.08 µM): 0.359
relative viability ([2]; first compound 0.253 µM): 0.363
relative viability ([2]; first compound 0.8 µM): 0.304
relative viability ([2]; first compound 2.53 µM): 0.33
relative viability ([2]; first compound 8 µM): 0.342
relative viability (Shikonin + Olaparib; first compound 0.01 µM): 0.887
relative viability (Shikonin + Olaparib; first compound 0.1 µM): 0.665
relative viability (Shikonin + Olaparib; first compound 0.3162 µM): 0.723
relative viability (Shikonin + Olaparib; first compound 1 µM): 0.495

SW 1573
relative viability (Shikonin + Pemetrexed; first compound 0.01 µM): 0.946
relative viability (Shikonin + Pemetrexed; first compound 0.1 µM): 0.947
relative viability (Shikonin + Pemetrexed; first compound 0.3162 µM): 0.589
relative viability (Shikonin + Pemetrexed; first compound 1 µM): 0.143
relative viability ([1]; first compound 0.08 µM): 0.596
relative viability ([1]; first compound 0.253 µM): 0.666
relative viability ([1]; first compound 0.8 µM): 0.648
relative viability ([1]; first compound 2.53 µM): 0.893
relative viability ([1]; first compound 8 µM): 0.886
relative viability ([2]; first compound 0.08 µM): 0.656
relative viability ([2]; first compound 0.253 µM): 0.438
relative viability ([2]; first compound 0.8 µM): 0.546
relative viability ([2]; first compound 2.53 µM): 0.55
relative viability ([2]; first compound 8 µM): 0.585
relative viability (Shikonin + Olaparib; first compound 0.01 µM): 0.661
relative viability (Shikonin + Olaparib; first compound 0.1 µM): 0.557
relative viability (Shikonin + Olaparib; first compound 0.3162 µM): 0.321
relative viability (Shikonin + Olaparib; first compound 1 µM): 0.0736
